From US10829520B2, “Beta-hairpin peptidomimetics” (POLYPHOR AG, priority 2015, dated 2020)
Where a SMILES comes first, the peptide text is derived from it. Bridges are numbered along the chain shown (N, C = ends). [ ]: non-standard residue; d: D form. Cha = N[C@@H](CC1CCCCC1)C(=O)O; aThr = C[C@H](O)[C@H](N)C(=O)O; Tle = CC(C)(C)[C@H](N)C(=O)O; dDab = NCC[C@@H](N)C(=O)O; dPip = O=C(O)[C@H]1CCCCN1; Orn = NCCC[C@H](N)C(=O)O; Dab = NCC[C@H](N)C(=O)O; Dap = NC[C@H](N)C(=O)O

Key:
Assay type in all cases: cell-based
[1] = test system: human red blood cells (hRBC); test: Hemolysis of human red blood cells; details: red cells of human, 1 h, 100 μg/mL
How it was run: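 Peptides at 100 μg/mL were incubated with PBS-washed fresh human erythrocytes (20% v/v, ~0.9×10^9 cells/mL final) for 1 h at 37° C. with shaking. Supernatant OD540 was read after 8-fold dilution; percent hemolysis was expressed relative to the 2.5% Triton X-100 full-lysis control, with PBS/0.001% acetic acid as 0%.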

Escherichia coli 926415 = details: 926415
[2] = test system: Pseudomonas aeruginosa ATCC 27853; details: ATCC 27853
How it was run: (§1)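 Broth microdilution per CLSI, cation-adjusted MH-II medium, 0.002% (v/v) polysorbate 80 final. Approx. 10^6 CFU/mL inoculum, incubated 35° C for 18-20 h; MIC read as absence of visible growth.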

[3] = test system: Escherichia coli ATCC 25922; details: ATCC 25922
How it was run: as §1

[4] = test system: Klebsiella pneumoniae SSI #3010; details: SSI #3010
How it was run: as §1

[5] = test system: Acinetobacter baumannii DSM 30008; details: DSM 30008
How it was run: as §1

[6] = test system: Acinetobacter baumannii 872842; details: 872842
[7] = test system: Klebsiella pneumoniae 968733; details: 968733

SMILES	Hemolysis at 100 μg/mL [1] [%]	Escherichia coli 926415 MIC (Escherichia coli 926415) [µg/mL]	Pseudomonas aeruginosa ATCC 27853 MIC [2] [µg/mL]	Escherichia coli ATCC 25922 MIC [3] [µg/mL]	Klebsiella pneumoniae SSI #3010 MIC [4] [µg/mL]	Acinetobacter baumannii DSM 30008 MIC [5] [µg/mL]	Acinetobacter baumannii 872842 MIC [6] [µg/mL]	Klebsiella pneumoniae 968733 MIC [7] [µg/mL]
CC(=O)N[C@@H](Cc1c[nH]c2ccccc12)C(=O)N[C@H]1CSSC[C@@H](C(=O)N[C@@H](CCCN)C(=O)N[C@H](C(=O)N[C@@H](CCN)C(=O)N[C@H]2CCNC(=O)[C@H]([C@@H](C)O)NC(=O)[C@H](CCN)NC(=O)[C@H](CCN)NC(=O)[C@H](CC(C)C)NC(=O)[C@@H](Cc3ccccc3)NC(=O)[C@H](CCN)NC2=O)[C@@H](C)O)NC(=O)[C@H](CC2CCCCC2)NC(=O)[C@H](Cc2c[nH]cn2)NC(=O)[C@H](CC(C)C)NC(=O)[C@@H]2CCCN2C(=O)[C@H]2CCCN2C(=O)[C@H]([C@H](C)O)NC(=O)[C@H](C)NC(=O)[C@H](C(C)(C)C)NC1=O [Ex. 113] (Ac-WC[Tle]A[aThr][dP]PLH[Cha]C[Orn]T[Dab][Dab][Dab][dF]L[Dab][Dab]T; disulfide 2-11; lactam 15-C)	5	0.5	1	1	2	1	0.25	4
CC(C)C[C@@H]1NC(=O)[C@@H](Cc2ccccc2)NC(=O)[C@H](CCN)NC(=O)[C@@H](NC(=O)[C@H](CCN)NC(=O)[C@@H](NC(=O)[C@H](CCN)NC(=O)[C@@H]2CSSC[C@H](NC(=O)[C@@H](N)Cc3c[nH]c4ccccc34)C(=O)N[C@@H](C(C)(C)C)C(=O)N[C@@H](C)C(=O)N[C@@H](CO)C(=O)N3CCCC[C@@H]3C(=O)N3CCC[C@H]3C(=O)N[C@@H](CC(C)C)C(=O)N[C@@H](CO)C(=O)N[C@@H](Cc3ccc(O)cc3)C(=O)N2)[C@@H](C)O)CCNC(=O)[C@H]([C@@H](C)O)NC(=O)[C@H](CCN)NC(=O)[C@H](CCN)NC1=O [Ex. 114] (H-WC[Tle]AS[dPip]PLSYC[Dab]T[Dab][Dab][Dab][dF]L[Dab][Dab]T; disulfide 2-11; lactam 15-C)	6	0.0625	0.5	0.125	0.25	0.5	0.125	0.5
CC(=O)N[C@@H](Cc1c[nH]c2ccccc12)C(=O)N[C@H]1CSSC[C@@H](C(=O)N[C@@H](CCN)C(=O)N[C@@H](CCN)C(=O)N[C@@H](CCN)C(=O)N[C@H]2CCNC(=O)[C@H]([C@@H](C)O)NC(=O)[C@H](CCN)NC(=O)[C@H](CCN)NC(=O)[C@H](CC(C)C)NC(=O)[C@@H](Cc3ccccc3)NC(=O)[C@H](CCN)NC2=O)NC(=O)[C@H](Cc2ccc(O)cc2)NC(=O)[C@H]([C@@H](C)O)NC(=O)[C@H](CC(C)C)NC(=O)[C@H](CCCNC(=N)N)NC(=O)[C@H]2CCCN2C(=O)[C@H](C(C)C)NC(=O)[C@H]([C@@H](C)O)NC(=O)[C@H](C(C)C)NC1=O [Ex. 115] (Ac-WCVTV[dP]RLTYC[Dab][Dab][Dab][Dab][Dab][dF]L[Dab][Dab]T; disulfide 2-11; lactam 15-C)	1	0.5	0.5	0.5	0.5	0.5	0.5	1
CC(=O)N[C@@H](Cc1c[nH]c2ccccc12)C(=O)N[C@H]1CSSC[C@@H](C(=O)N[C@@H](CCCN)C(=O)N[C@H](C(=O)N[C@@H](CCN)C(=O)N[C@H]2CCNC(=O)[C@H]([C@@H](C)O)NC(=O)[C@H](CCN)NC(=O)[C@H](CCN)NC(=O)[C@H](CC(C)C)NC(=O)[C@@H](Cc3ccccc3)NC(=O)[C@H](CCN)NC2=O)[C@@H](C)O)NC(=O)[C@H](Cc2ccc(O)cc2)NC(=O)CNC(=O)[C@H](CC(C)C)NC(=O)[C@@H]2CCCN2C(=O)[C@H]2CCCN2C(=O)[C@H](CO)NC(=O)[C@H](CN)NC(=O)[C@H](C(C)(C)C)NC1=O [Ex. 117] (Ac-WC[Tle][Dap]S[dP]PLGYC[Orn]T[Dab][Dab][Dab][dF]L[Dab][Dab]T; disulfide 2-11; lactam 15-C)	<1	0.25	2	0.5	1	0.25	0.125	2
CC(=O)N[C@@H](Cc1c[nH]c2ccccc12)C(=O)N[C@H]1CSSC[C@@H](C(=O)N[C@@H](CCCN)C(=O)N[C@H](C(=O)N[C@@H](CCN)C(=O)N[C@H]2CCNC(=O)[C@H]([C@@H](C)O)NC(=O)[C@H](CCN)NC(=O)[C@H](CCN)NC(=O)[C@H](CC(C)C)NC(=O)[C@@H](Cc3ccccc3)NC(=O)[C@H](CCN)NC2=O)[C@@H](C)O)NC(=O)[C@H](Cc2ccc(O)cc2)NC(=O)[C@H](CO)NC(=O)[C@H]([C@@H](C)O)NC(=O)[C@@H]2CCCN2C(=O)[C@H]2CCCN2C(=O)[C@H](CC(C)C)NC(=O)[C@H](C)NC(=O)[C@H](C(C)(C)C)NC1=O [Ex. 118] (Ac-WC[Tle]AL[dP]PTSYC[Orn]T[Dab][Dab][Dab][dF]L[Dab][Dab]T; disulfide 2-11; lactam 15-C)	2	0.5	2	0.5	0.5	0.25	0.25	0.5
CC[C@H](C)[C@@H]1NC(=O)[C@@H]2CCCN2C(=O)[C@H]2CCCN2C(=O)[C@H](Cc2ccc(O)cc2)NC(=O)[C@@H](NC(=O)[C@@H](NC(=O)[C@H](CCN)NC(=O)[C@H](CC(C)C)NC(C)=O)C(C)C)CSSC[C@@H](C(=O)N[C@@H](Cc2ccc(O)cc2)C(=O)N[C@@H](CCN)C(=O)N[C@@H](CCCN)C(=O)N[C@H](CCN)C(=O)N[C@@H](CCN)C(=O)N[C@H]2CCNC(=O)[C@H]([C@@H](C)O)NC(=O)[C@H](CCN)NC(=O)[C@H](CCN)NC(=O)[C@H](CC(C)C)NC(=O)[C@@H](Cc3ccccc3)NC(=O)[C@H](CCN)NC2=O)NC1=O [Ex. 119] (Ac-L[Dab]VCY[dP]PICY[Dab][Orn][dDab][Dab][Dab][Dab][dF]L[Dab][Dab]T; disulfide 4-9; lactam 15-C)	0.5	1	0.25	0.25	1	0.5	0.5	4
CC(=O)N[C@@H](Cc1c[nH]c2ccccc12)C(=O)N[C@@H](C)C(=O)N[C@H](C(=O)N[C@H]1CSSC[C@@H](C(=O)N[C@@H](Cc2ccc(O)cc2)C(=O)N[C@@H](C)C(=O)N[C@@H](CCCN)C(=O)N[C@H](CCN)C(=O)N[C@@H](CCN)C(=O)N[C@H]2CCNC(=O)[C@H]([C@@H](C)O)NC(=O)[C@H](CCN)NC(=O)[C@H](CCN)NC(=O)[C@H](CC(C)C)NC(=O)[C@@H](Cc3ccccc3)NC(=O)[C@H](CCN)NC2=O)NC(=O)[C@H](CC(C)C)NC(=O)[C@H](CCN)NC(=O)[C@H]2CCCN2C(=O)[C@H](C(C)C)NC1=O)C(C)C [Ex. 120] (Ac-WAVCV[dP][Dab]LCYA[Orn][dDab][Dab][Dab][Dab][dF]L[Dab][Dab]T; disulfide 4-9; lactam 15-C)	<1	2	1	1	1	0.25	0.25	8
